Where two headings read alike, the source gives them in different places. Each block holds one compound with its values, some of them ahead of it.
Tests used:
[1] = system: NUGC-3 cells; assay: Anti-proliferation effect on NUGC-3 cells (Cell Counting Kit-8); type: cell-based; details: Homo sapiens, NUGC-3, 120 h; 5 days of treatment
Experimental: Cell line NUGC-3 (JCRB, JCRB0822) was cultured in RPMI 1640 (Invitrogen, 11875-085) medium supplemented with 10% (v/v) fetal bovine serum (BI, 04-002-1A), according to the standard instructions of the American Type Culture Collection. The cell line was authenticated by short tandem repeat profiling.
In the proliferation assay, 1000 NUGC-3 cells were seeded in a 96-well flat clear bottom, TC-treated plate (Corning, 3903) in 200 μL of medium per well, and allowed to recover overnight in culture medium. Compounds were added with increasing concentration, with DMSO treatment serving as a […] control. After 5 days of treatment, the plate was equilibrated to room temperature for 30 minutes, and the number of living cells was measured by the addition of the Cell Counting Kit-8 reagent (MCE, HY-K0301). Absorbance was measured on an Enspire (Perkin elme). The relative viability of each group was presented as the percentage change relative to the […] control group and then fit to a four-parameter logit non-linear curve using the program XLFit (IDBS)

[2] = Metabolic stability test in hepatocytes; type: in vitro ADME; details: for hepatocyte CLint at 1 μM: read-out: In vitro Clint (μL/min/10^6 cells); for half-life at 1 μM: read-out: In vitro t1/2
Experimental: The test compound and the control drug verapamil powder were prepared into a high concentration stock solution using DMSO, and diluted to a 100 μM working solution with 50% acetonitrile/water before use, with final concentrations of 1 μM for the test compound and verapamil.
• 1) 49.5 mL of Williams' Medium E and 0.5 mL GlutaMAX were mixed as the incubation solution. The hepatocyte recovery solution and the incubation solution were pre-warmed in a 37° C. water bath for at least 15 minutes prior to use. • 2) A tube of cryopreserved hepatocytes was taken, ensuring that the hepatocytes were still in a cryogenic frozen state prior to resuscitation. The hepatocytes were quickly placed in a 37° C. water bath and gently shaken until all ice crystals were completely dispersed, sprayed with 70% ethanol and transferred to a biosafety cabinet. • 3) The contents of the hepatocyte tube were poured into a centrifuge tube containing 50 mL of recovery medium, which were centrifuged at 100 g for 10 minutes. After centrifugation, the recovery medium was aspirated, and sufficient incubation medium was added to obtain a cell suspension having a cell density of approximately 1.5×10^6 cells/mL. • 4) Cellometer Vision was used to count hepatocytes and determine the density of viable cells. The survival rate of hepatocytes must be greater than 75%. The hepatocyte suspension was diluted with incubation medium to a viable cell density of 0.5×10^6 cells/mL. • 5) A portion of hepatocyte suspension with a density of 0.5×10^6 cells/mL was boiled in water for 5 minutes to inactivate as a negative control. After cells were inactivated, substrate conversion mediated by non-cellular enzymes could be easily investigated.
• 1) 198 μL of the suspension of live or inactivated cells was transferred to a 96-well deep-well plate, which was then placed on a vortexer and preheated in an incubator for 10 minutes. Live cells were incubated in duplicate, while inactivated cells were incubated in single. • 2) 2 μL of 100 μM test compound or verapamil was added to each well for the reaction initiation, and the deep-well plate was placed back on the incubator vortexer. • 3) 25 μL of the suspension were taken from the incubated samples at 0, 15, 30, 60, 90, and 120 minutes, respectively, and added to 150 μL of acetonitrile containing internal standards (200 nM alprazolam, 200 nM labetalol, 2 μM ketoprofen, and 200 nM caffeine) to terminate the reaction. The mixture was vortexed for 10 minutes and centrifuged at 3220 g and 4° C. for 30 minutes. After centrifugation was completed, 100 μL of the supernatant and 100 μL of ultra-pure water were mixed well for UPLC-MS/MS analysis detection.
All data calculations were performed using Microsoft Excel software. Peak areas were detected by extracting the ion chromatogram. The in vitro half-life (t1/2) of the parent drug was detected by linear fitting of the natural logarithm of the percentage of parent drug […] with time.
The in vitro half-life (t1/2) was calculated by the slope: […]
In vitro intrinsic clearance (unit μL/min/10^6 cells) was calculated using the following formula:
[formula] • V=incubation volume per well (0.2 mL); • N=number of cells per well (0.1×10^6 cells)

[3] = Metabolic stability in liver microsomes; type: in vitro ADME; details: for microsomal CLint at 1 μM: read-out: In vitro Clint (μL/min/mg protein); for half-life at 1 μM: read-out: In vitro t1/2
Experimental: The test compound and the positive control compound (dextromethorphan as a control compound) were dissolved respectively in DMSO to prepare a stock solution with a concentration of 10 mM, and the above stock solution was diluted into 200 μM working solution with DMSO. 8.709 g of potassium hydrogen phosphate (K2HPO4) was dissolved in 950 mL of water, and the pH value of the solution was adjusted to 7.4 with hydrochloric acid, and then the volume was adjusted to 1000 mL with water. After filtration using a 0.22 μm filter membrane, the mixture was stored in a 4° C. refrigerator for later use. After liver microsomes of various species (protein concentration of 20 mg/mL) were thawed in a 37° C. water bath, the liver microsomes were diluted with a phosphate buffer respectively to obtain a liver microsome working solution with protein concentration of 0.629 mg/mL. 5 mM NADPH solution was prepared using the above phosphate buffer for later use. 1 mg/mL stock solution of terfenadine/tolbutamide was prepared with DMSO and then diluted with a 50% methanol/50% acetonitrile mixed solution to a reaction stop solution containing 5/10 ng/mL (terfenadine/tolbutamide) internal standard.
238.5 μL of liver microsome working solutions of various species were added to a 1.1 mL microtube, and 1.5 μL of the test compound working solution or the positive control compound (dextromethorphan) working solution (200 μM) was added respectively, mixed well, and pre-incubated in a 37° C. water bath for 5 minutes. 60 μL of NADPH solution was added to start the reaction, and after mixing well, at the time points of 0, 5, 15, 30, and 60 minutes after the reaction, 30 μL of the reaction mixture was respectively pipetted and added to 300 μL of the reaction stop solution. Samples from all time points were vortexed vigorously for 1 minute and centrifuged at 4000 rpm for 15 minutes at 4° C. 100 μL of the supernatant was added to 100 μL of pure water and mixed well for LC-MS/MS analysis.
The slope (ke) was determined by plotting the natural logarithm of the percentage of compound remaining against time, and the Tin and intrinsic clearance (CLint) were calculated based on the first-order kinetic formula: […]
The compound remaining rate is calculated as follows:
Intrinsic clearance CLint (μL/min/mg protein)=0.693*1000/T1/2/protein concentration (0.5 mg protein/mL)

[4] = system: CYP3A4/5; assay: Multi-concentration inhibitory activity curve of CYP3A4/5 enzymes; type: in vitro ADME; details: pH 7.4, probe testosterone; human liver microsomes; substrate testosterone; read-out: CYP3A4/5 IC50 (μM) (Testosterone)
Experimental: The buffer was filtered through a 0.45 μm filter.
Liver microsome working solution (final system concentration of 0.5 mg/mL) was prepared. […] The above stock solution was diluted with acetonitrile (4-fold dilution, 6 non-zero concentrations).
The half-maximal inhibitory concentration (IC50) was calculated using Graph Pad Prism.

[5] = cryopreserved hepatocytes in suspension, Human hepatocytes
[6] = cryopreserved hepatocytes in suspension, Mouse hepatocytes
[7] = cryopreserved hepatocytes in suspension, Rat hepatocytes
[8] = ICR/CD-1, pH 7.4, Mouse liver microsomes
[9] = Sprague Dawley, pH 7.4, Rat liver microsomes
[10] = cryopreserved hepatocytes, Human hepatocytes
[11] = cryopreserved hepatocytes, Mouse hepatocytes
[12] = cryopreserved hepatocytes, Rat hepatocytes

SMILES: [2H]C([2H])([2H])Oc1nc(C(=O)NS(=O)(=O)CC2CC2)ccc1NCC#Cc1cc2c(N[C@@H]3CCN(C)C[C@@H]3F)cccn2c1CC(F)(F)F [Cpd-5, N-((Cyclopropylmethyl)sulfonyl)-5-((3-(8-(((3S,4R)-3-fluoro-1-methylpiperidin-4-yl)amino)-3-(2,2,2-trifluoroethyl)indolizin-2-yl)prop-2-yn-1-yl)amino)-6-(methoxy-d3)picolinamide]
- IC50 [1]: 0.081 µM

SMILES: [2H]C([2H])([2H])Oc1nc(C(=O)NS(C)(=O)=O)ccc1NCC#Cc1cc2c(N[C@@H]3CCN(C)C[C@H]3F)cccn2c1CC(F)(F)F [Cpd-10, 5-((3-(8-(((3R,4R)-3-Fluoro-1-methylpiperidin-4-yl)amino)-3-(2,2,2-trifluoroethyl)indolizin-2-yl)prop-2-yn-1-yl)amino)-6-(methoxy-d3)-N-(methylsulfonyl)picolinamide]
- IC50 [1]: 0.9 µM

SMILES: [2H]C([2H])([2H])Oc1nc(C(=O)NS(C)(=O)=O)ccc1NCC#Cc1cc2c(N[C@H]3CCN(C)C[C@@H]3F)cccn2c1CC(F)(F)F [Cpd-9, 5-((3-(8-(((3S,4S)-3-Fluoro-1-methylpiperidin-4-yl)amino)-3-(2,2,2-trifluoroethyl)indolizin-2-yl)prop-2-yn-1-yl)amino)-6-(methoxy-d3)-N-(methylsulfonyl)picolinamide]
- IC50 [1]: 0.55 µM

- hepatocyte CLint at 1 μM [2, 5]: 18.4 µL/min/1e6 cells
- half-life at 1 μM [2, 5]: 75 min
- hepatocyte CLint at 1 μM [2, 6]: 31.8 µL/min/1e6 cells
- half-life at 1 μM [2, 6]: 44 min
- hepatocyte CLint at 1 μM [2, 7]: 15.7 µL/min/1e6 cells
- half-life at 1 μM [2, 7]: 88 min
- microsomal CLint at 1 μM [3, 8]: 83.9 µL/min/mg
- half-life at 1 μM [3, 8]: 17 min
- microsomal CLint at 1 μM [3, 9]: 61.5 µL/min/mg
- half-life at 1 μM [3, 9]: 23 min
- microsomal CLint at 1 μM ([3]; pH 7.4, Human liver microsomes): 28.3 µL/min/mg
- half-life at 1 μM ([3]; pH 7.4, Human liver microsomes): 49 min
SMILES: CNC(=O)c1ccc(NCC#Cc2cc3c(N[C@@H]4CCN(C)C[C@@H]4F)cccn3c2CC(F)(F)F)c(OC)c1 [Cpd-C, 4-((3-(8-(((3S,4R)-3-Fluoro-1-methylpiperidin-4-yl)amino)-3-(2,2,2-trifluoroethyl)indolizin-2-yl)prop-2-yn-1-yl)amino)-3-methoxy-N-methylbenzamide, reference compound]

SMILES: [2H]C([2H])([2H])Oc1nc(C(=O)NS(C)(=O)=O)ccc1NCC#Cc1cc2c(N[C@H]3CCN(C)C[C@H]3F)cccn2c1CC(F)(F)F [Cpd-8, 5-((3-(8-(((3R,4S)-3-Fluoro-1-methylpiperidin-4-yl)amino)-3-(2,2,2-trifluoroethyl)indolizin-2-yl)prop-2-yn-1-yl)amino)-6-(methoxy-d3)-N-(methylsulfonyl)picolinamide]
- IC50 [1]: 0.34 µM

- IC50 at 10 min [4]: 3.2 µM
- hepatocyte CLint at 1 μM [2, 10]: 16.8 µL/min/1e6 cells
- half-life at 1 μM [2, 10]: 82 min
- hepatocyte CLint at 1 μM [2, 11]: 198 µL/min/1e6 cells
- half-life at 1 μM [2, 11]: 7 min
- hepatocyte CLint at 1 μM [2, 12]: 63.8 µL/min/1e6 cells
- half-life at 1 μM [2, 12]: 22 min
SMILES: COc1cc(S(C)(=O)=O)ccc1NCC#Cc1nc2c(N[C@@H]3CCN(C)C[C@@H]3F)cccn2c1CC(F)(F)F [Cpd-B, reference compound]

SMILES: [2H]C([2H])([2H])Oc1nc(C(=O)NS(=O)(=O)C2CC2)ccc1NCC#Cc1cc2c(N[C@@H]3CCN(C)C[C@@H]3F)cccn2c1CC(F)(F)F [Cpd-4, N-(Cyclopropylsulfonyl)-5-((3-(8-(((3S,4R)-3-fluoro-1-methylpiperidin-4-yl)amino)-3-(2,2,2-trifluoroethyl)indolizin-2-yl)prop-2-yn-1-yl)amino)-6-(methoxy-d3)picolinamide]
- IC50 [1]: 0.097 µM

SMILES: [2H]C([2H])([2H])Oc1nc(C(=O)NS(=O)(=O)CC(F)(F)F)ccc1NCC#Cc1cc2c(N[C@@H]3CCN(C)C[C@@H]3F)cccn2c1CC(F)(F)F [Cpd-6, 5-((3-(8-(((3S,4R)-3-Fluoro-1-methylpiperidin-4-yl)amino)-3-(2,2,2-trifluoroethyl)indolizin-2-yl)prop-2-yn-1-yl)amino)-6-(methoxy-d3)-N-((2,2,2-trifluoroethyl)sulfonyl)picolinamide]
- IC50 [1]: 0.19 µM

SMILES: COc1nc(C(=O)NS(=O)(=O)C2CC2)ccc1NCC#Cc1cc2c(N[C@@H]3CCN(C)C[C@@H]3F)cccn2c1CC(F)(F)F [Cpd-7, N-(Cyclopropylsulfonyl)-5-((3-(8-(((3S,4R)-3-fluoro-1-methylpiperidin-4-yl)amino)-3-(2,2,2-trifluoroethyl)indolizin-2-yl)prop-2-yn-1-yl)amino)-6-methoxypicolinamide]
- IC50 [1]: 0.07 µM

— patent publication US20250304578A1, “NITROGEN-CONTAINING FUSED HETEROCYCLIC COMPOUNDS OF N-SULFONAMIDE AND USE THEREOF” (NUTSHELL THERAPEUTICS (SHANGHAI) CO., LTD., priority 2023, published 2025)
